Results: PubChem BioAssay (NCI)
Where “and” joins values, the source holds several entries; their conditions need not be identical. Equal entries are not always repeated.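 A five-concentration, 48-hour dose response in 96-well plates underlies each endpoint, interpolated linearly between surrounding concentrations. GI50 marks 50% less growth. At the TGI there is no net growth.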

Legend:
Assay in all cases: inhibition of tumour cell growth, NCI panel, 48 h; in the data active means GI50 below about 0.43 µM; inactive means the rest
M14 melanoma = tested on: M14 melanoma
IGROV1 ovarian = tested on: IGROV1 ovarian
OVCAR-8 ovarian = tested on: OVCAR-8 ovarian
SK-OV-3 ovarian = tested on: SK-OV-3 ovarian
CCRF-CEM leukemia = tested on: CCRF-CEM leukemia
HS 578T breast = tested on: HS 578T breast
MDA-MB-435 = tested on: MDA-MB-435
HOP-62 NSCLC = tested on: HOP-62 NSCLC
SN12C renal = tested on: SN12C renal
DU-145 prostate = tested on: DU-145 prostate
U251 CNS = tested on: U251 CNS
NCI-H522 lung = tested on: NCI-H522 lung
NCI-H460 lung = tested on: NCI-H460 lung
OVCAR-5 ovarian = tested on: OVCAR-5 ovarian
HOP-92 NSCLC = tested on: HOP-92 NSCLC
UO-31 renal = tested on: UO-31 renal
RPMI-8226 leukemia = tested on: RPMI-8226 leukemia
PC-3 prostate = tested on: PC-3 prostate
A498 renal = tested on: A498 renal
HCT-116 colon = tested on: HCT-116 colon
OVCAR-3 ovarian = tested on: OVCAR-3 ovarian
SR leukemia = tested on: SR leukemia
NCI-H226 lung = tested on: NCI-H226 lung
SF-295 CNS = tested on: SF-295 CNS
NCI-H23 lung = tested on: NCI-H23 lung
COLO 205 colon = tested on: COLO 205 colon
HCC-2998 colon = tested on: HCC-2998 colon
T-47D breast = tested on: T-47D breast
UACC-62 melanoma = tested on: UACC-62 melanoma
MDA-MB-231 breast = tested on: MDA-MB-231 breast
HT29 colon = tested on: HT29 colon
NCI/ADR-RES ovarian = tested on: NCI/ADR-RES ovarian
UACC-257 melanoma = tested on: UACC-257 melanoma
CAKI-1 renal = tested on: CAKI-1 renal
RXF 393 renal = tested on: RXF 393 renal
EKVX NSCLC = tested on: EKVX NSCLC
HL-60(TB) leukemia = tested on: HL-60(TB) leukemia
SF-539 CNS = tested on: SF-539 CNS
786-0 renal = tested on: 786-0 renal
MALME-3M melanoma = tested on: MALME-3M melanoma
LOX IMVI melanoma = tested on: LOX IMVI melanoma
MDA-N = tested on: MDA-N
HCT-15 colon = tested on: HCT-15 colon
SNB-19 CNS = tested on: SNB-19 CNS
BT-549 breast = tested on: BT-549 breast
SNB-75 CNS = tested on: SNB-75 CNS
ACHN renal = tested on: ACHN renal
SW-620 colon = tested on: SW-620 colon
MOLT-4 leukemia = tested on: MOLT-4 leukemia
K-562 leukemia = tested on: K-562 leukemia
SK-MEL-28 melanoma = tested on: SK-MEL-28 melanoma
MCF7 breast = tested on: MCF7 breast
SF-268 CNS = tested on: SF-268 CNS
KM12 colon = tested on: KM12 colon
A549 NSCLC = tested on: A549 NSCLC
OVCAR-4 ovarian = tested on: OVCAR-4 ovarian
SK-MEL-5 melanoma = tested on: SK-MEL-5 melanoma
TK-10 renal = tested on: TK-10 renal
SK-MEL-2 melanoma = tested on: SK-MEL-2 melanoma

CC1=CC(C)C(C)N(CC2=NCCN2)c2ccccc21 (centres undefined)
38.5 µM: TGI (SK-MEL-28 melanoma)
45.8 µM: TGI (HT29 colon)
44.6 µM: TGI (MALME-3M melanoma)
33.9 µM: TGI (HCC-2998 colon)
32.3 µM: TGI (COLO 205 colon)
> 82.4 µM: TGI (SR leukemia)
36.4 µM: TGI (SK-MEL-5 melanoma)
> 89.9 µM: TGI (RXF 393 renal)
32.7 µM: TGI (M14 melanoma)
> 85.5 µM: TGI (SNB-75 CNS)
> 89.3 µM: TGI (HL-60(TB) leukemia)
45.6 µM: TGI (HOP-92 NSCLC)
37.1 µM: TGI (UACC-257 melanoma)
> 92.1 µM: TGI (SK-MEL-2 melanoma)
> 100 µM: TGI (IGROV1 ovarian) | TGI (OVCAR-8 ovarian) | TGI (SK-OV-3 ovarian) | TGI (CCRF-CEM leukemia) | TGI (HS 578T breast) | TGI (MDA-MB-435) | TGI (HOP-62 NSCLC) | TGI (SN12C renal) | TGI (DU-145 prostate) | TGI (U251 CNS) | TGI (NCI-H522 lung) | TGI (NCI-H460 lung) | TGI (OVCAR-5 ovarian) | TGI (UO-31 renal) | TGI (RPMI-8226 leukemia) | TGI (PC-3 prostate) | TGI (A498 renal) | TGI (HCT-116 colon) | TGI (OVCAR-3 ovarian) | TGI (NCI-H226 lung) | TGI (SF-295 CNS) | TGI (NCI-H23 lung) | TGI (T-47D breast) | TGI (UACC-62 melanoma) | TGI (MDA-MB-231 breast) | TGI (NCI/ADR-RES ovarian) | TGI (CAKI-1 renal) | TGI (EKVX NSCLC) | TGI (SF-539 CNS) | TGI (786-0 renal) | TGI (LOX IMVI melanoma) | TGI (MDA-N) | TGI (HCT-15 colon) | TGI (SNB-19 CNS) | TGI (BT-549 breast) | TGI (ACHN renal) | TGI (SW-620 colon) | TGI (MOLT-4 leukemia) | TGI (K-562 leukemia) | TGI (MCF7 breast) | TGI (SF-268 CNS) | TGI (KM12 colon) | TGI (A549 NSCLC) | TGI (OVCAR-4 ovarian) | TGI (TK-10 renal)

O=C(NNC(=O)c1ccccc1S)c1ccccc1S
> 100 µM: TGI (SK-OV-3 ovarian) | TGI (HS 578T breast) | TGI (HOP-92 NSCLC) | TGI (UO-31 renal) | TGI (PC-3 prostate) | TGI (A498 renal) | TGI (HCC-2998 colon) | TGI (MDA-MB-231 breast) | TGI (SK-MEL-28 melanoma) | TGI (MCF7 breast) | TGI (TK-10 renal) | TGI (SK-MEL-2 melanoma)
25 µM and 68.3 µM: TGI (HOP-62 NSCLC)
24.6 µM and 17.6 µM: TGI (HL-60(TB) leukemia)
22.5 µM and > 100 µM: TGI (IGROV1 ovarian)
25 µM and 65.4 µM: TGI (OVCAR-3 ovarian)
inactive: GI50 (M14 melanoma) 23.3 µM | GI50 (IGROV1 ovarian) 16.9 µM | GI50 (SK-OV-3 ovarian) 64.8 µM | GI50 (CCRF-CEM leukemia) 1.85 µM | GI50 (MDA-MB-435) 33.2 µM | GI50 (HOP-62 NSCLC) 21 µM | GI50 (SN12C renal) 25.9 µM | GI50 (U251 CNS) 31.8 µM | GI50 (NCI-H522 lung) 5.34 µM | GI50 (OVCAR-5 ovarian) 68.2 µM | GI50 (HOP-92 NSCLC) > 100 µM | GI50 (RPMI-8226 leukemia) 9.24 µM | GI50 (HCT-116 colon) 8.17 µM | GI50 (OVCAR-3 ovarian) 16.1 µM | GI50 (SR leukemia) 3.37 µM | GI50 (NCI-H226 lung) 25.2 µM | GI50 (SF-295 CNS) 21.8 µM | GI50 (NCI-H23 lung) 20.8 µM | GI50 (COLO 205 colon) 28.2 µM | GI50 (T-47D breast) 6.88 µM | GI50 (UACC-62 melanoma) 27.5 µM | GI50 (HT29 colon) 31.3 µM | GI50 (NCI/ADR-RES ovarian) 25.9 µM | GI50 (UACC-257 melanoma) 2.57 µM | GI50 (CAKI-1 renal) 5.51 µM | GI50 (RXF 393 renal) 8.74 µM | GI50 (EKVX NSCLC) 52.2 µM | GI50 (HL-60(TB) leukemia) 3.12 µM | GI50 (SF-539 CNS) 37.1 µM | GI50 (786-0 renal) 13.4 µM | GI50 (MALME-3M melanoma) 54.3 µM | GI50 (MDA-N) 22.3 µM | GI50 (HCT-15 colon) 7.97 µM | GI50 (SNB-19 CNS) 59.9 µM | GI50 (BT-549 breast) 16.7 µM | GI50 (SNB-75 CNS) 27.9 µM | GI50 (SW-620 colon) 8.09 µM | GI50 (MOLT-4 leukemia) 3.58 µM | GI50 (K-562 leukemia) 5.4 µM | GI50 (SK-MEL-28 melanoma) 35.3 µM | GI50 (SF-268 CNS) 16.6 µM | GI50 (KM12 colon) 37.3 µM | GI50 (A549 NSCLC) 28.7 µM | GI50 (OVCAR-4 ovarian) 28 µM | GI50 (SK-MEL-5 melanoma) 34.2 µM | GI50 (TK-10 renal) > 100 µM
25 µM and > 100 µM: TGI (M14 melanoma) | TGI (OVCAR-8 ovarian) | TGI (MDA-MB-435) | TGI (SN12C renal) | TGI (DU-145 prostate) | TGI (U251 CNS) | TGI (NCI-H460 lung) | TGI (OVCAR-5 ovarian) | TGI (RPMI-8226 leukemia) | TGI (NCI-H226 lung) | TGI (SF-295 CNS) | TGI (NCI-H23 lung) | TGI (COLO 205 colon) | TGI (T-47D breast) | TGI (UACC-62 melanoma) | TGI (HT29 colon) | TGI (NCI/ADR-RES ovarian) | TGI (UACC-257 melanoma) | TGI (CAKI-1 renal) | TGI (RXF 393 renal) | TGI (EKVX NSCLC) | TGI (SF-539 CNS) | TGI (786-0 renal) | TGI (MALME-3M melanoma) | TGI (LOX IMVI melanoma) | TGI (MDA-N) | TGI (HCT-15 colon) | TGI (SNB-19 CNS) | TGI (BT-549 breast) | TGI (SNB-75 CNS) | TGI (ACHN renal) | TGI (SW-620 colon) | TGI (MOLT-4 leukemia) | TGI (K-562 leukemia) | TGI (SF-268 CNS) | TGI (KM12 colon) | TGI (A549 NSCLC) | TGI (OVCAR-4 ovarian) | TGI (SK-MEL-5 melanoma)
25 µM and 12.2 µM: TGI (CCRF-CEM leukemia)
25 µM and 82.1 µM: TGI (HCT-116 colon)
25 µM and 15.4 µM: TGI (SR leukemia)
active: GI50 (NCI-H460 lung) 0.123 µM
